“Also recorded” adds a separate entry of the source.
Columns and labels:
HFL-1 cells [1] = assay: Protection of normal human fibroblasts from paclitaxel cytotoxicity; format: cell-based; settings: HFL-1 cells pretreated with 2.0 μM for 8 hours, then paclitaxel (250 μM); viable cells 96 hours after paclitaxel
Experimental: FIG. 3 is a graph of the effect of paclitaxel on HFL-1 cells which were either pre-treated with (E)-4-fluorostyryl-4-chlorobenzylsulfone and then exposed to paclitaxel, or treated simultaneously with both agents. Cells were enumerated 96 hours after exposure to paclitaxel.
HFL-1 cells were plated at a cell density of 1.0×10^5 per well 24 hours prior to drug addition. Cells were pretreated with (E)-4-fluorostyryl-4-chlorobenzylsulfone (2.0 μM) for 8 hours and then exposed to paclitaxel (250 μM). Other cells were treated with paclitaxel alone, or both agents simultaneously. Cells were enumerated by Trypan blue exclusion using a hematocytometer 96 hours after exposure to paclitaxel. The ordinate in FIG. 3 represents the number of viable cells following treatment with (E)-4-fluorostyryl-4-chlorobenzylsulfone and paclitaxel, divided by the number of viable cells remaining after treatment with paclitaxel alone.

HFL-1 cells [2] = assay: Protection of normal human fibroblasts from anticancer agent cytotoxicity (Protection Ratio); format: cell-based; settings: 2.0 μM sulfone 24 hour preincubation, then cisplatin 5.0 μM; viable cells at 96 hours
Experimental: HFL-1 cells were plated at a cell density of 1.0×10^5 in 1 ml of medium. Twenty-four hours following plating, 2.0 μM of (E)-4-fluorostyryl-4-chlorobenzylsulfone was added to the medium. Following a 24 hour preincubation with the styryl sulfone, the various cytotoxic agents listed in Table 6 were added to the cells, at the concentrations given in Table 6. the number of viable cells was determined by Trypan blue exclusion using a hematocytometer 96 hours after exposure to cytotoxic agent. The “Protection Ratio” is the number of viable cells following treatment with (E)-4-fluorostyryl-4-chlorobenzylsulfone and cytotoxic agent, divided by the number of viable cells remaining after treatment with cytotoxic agent alone. A protection ratio of 2 or more is considered highly significant, while is protection ratio of 1.5-2 is considered less significant.

HFL-1 cells [3] = assay: Protection of normal human fibroblasts from vincristine cytotoxicity; format: cell-based; settings: 2.0 μM sulfone 24 hours before vincristine, viability 96 hours after vincristine
Experimental: Normal HFL cells were treated with 0 to 0.250 nM vincristine and 2.0 μM (E)-4-fluorostyryl-4-chlorobenzylsulfone as indicated. Cell viability was assessed 96 hours after vincristine was added. “V”, vincristine alone; “A→V”, styryl sulfone followed by vincristine 24 hours later; “A+V”, simultaneous styryl sulfone and vincristine treatment; “V→A”, vincristine followed by styryl sulfone 24 hours later.
HFL-1 cells were treated with […] vincristine and, optionally, 2.0 μM (E)-4-fluorostyryl-4-chlorobenzylsulfone either 24 hours before or after vincristine treatment, or simultaneously with vincristine treatment. Cell viability was assessed 96 hours after the addition of vincristine. The results are shown in FIG. 4: “V”, vincristine alone; “A→V”, styryl sulfone followed by vincristine 24 hours later; “A+V”, simultaneous styryl sulfone and vincristine treatment; “V→A”, vincristine followed by styryl sulfone 24 hours later.

ICR female mice = assay: Protection of mice from paclitaxel toxicity (mortality); format: in vivo; settings: 50 mg/Kg i.p. pre-treatment before 150 mg/kg paclitaxel i.p.; mortality at 48 and 144 hours
Experimental: The styryl sulfone was given 24 hours before paclitaxel, 4 hours before paclitaxel, or simultaneously with paclitaxel. Control animals received paclitaxel alone or styryl sulfone alone. Mortality was assessed 48 after paclitaxel injection.
FIG. 6 is similar to FIG. 5, except that mortality was assessed 144 hours post paclitaxel administration.
ICR female mice age 10-12 weeks (Taconic) were divided into the following treatment groups and received intraperitoneal injections of 50 mg/Kg (E)-4-fluorostyryl-4-chlorobenzylsulfone dissolved in DMSO and/or 150 mg/kg paclitaxel (Taxol, Sigma Chemical Co.) dissolved in DMSO. The styryl sulfone was given 24 hours before paclitaxel, 4 hours before paclitaxel, or simultaneously with paclitaxel. Control animals received paclitaxel alone or styryl sulfone alone. Mortality was assessed 48 and 144 hours after paclitaxel injection. The results are shown in FIG. 5 (48 hours post paclitaxel administration) and FIG. 6 (144 hours post paclitaxel administration). Paclitaxel toxicity in mice is abrogated by pre-treatment with (E)-4-fluorostyryl-4-chlorobenzylsulfone.

Normal human HFL-1 cells = assay: Cytoprotection assay against paclitaxel; format: cell-based; set-up: key: +: A compound was deemed to be active if the number of viable cells following the combination treatment was higher than the number of cells after treatment with paclitaxel alone; settings: 2.0 or 10 μM sulfone, paclitaxel 250 nM at time zero or 24 hours later, viable cells after 96 hours of paclitaxel
Experimental: The cytoprotective activity of the same Istyryl benzylsulfones was determined as follows. Normal human HFL-1 cells were plated at a cell density of 1.0×10^5 cells per well in six culture plates. Styryl benzylsulfone was added 24 hours later at a final concentration of either 2.0 or 10 μM. The time of styryl sulfone addition was designated as time zero. Paclitaxel (250 nM) was added at either time zero, or 24 hours after time zero. The total number of viable cells was determined, as described above, after 96 hours of paclitaxel treatment. A compound was deemed to be active if the number of viable cells following the combination treatment was higher than the number of cells after treatment with paclitaxel alone.

HFL-1 cells [4] = assay: Long term exposure of normal human fibroblasts, cell count; format: cell-based; settings: 2.5 or 5.0 μM for 48 or 72 hours, counted 96 hours after the incubation period
Experimental: Cells were exposed to either 2.5 or 5.0 μM of the styryl sulfone […] and counted.
HFL-1 cells were plated at a cell density of 1.0×10^5 per well 24 hours prior to drug addition. Cells were exposed to either 2.5 or 5.0 μM (E)-4-fluorostyryl-4-chlorobenzylsulfone for 48 or 72 hours. Cells were counted 96 hours after the incubation period.

Row | Structure (SMILES) | Cytoprotection (Normal human HFL-1 cells) | further results
1 | O=S(=O)(/C=C/c1ccc(F)cc1)Cc1ccc(Cl)cc1 [Example 7, (E)-4-fluorostyryl-4-chlorobenzyl sulfone] | + | protection from the toxic effects of paclitaxel (HFL-1 cells [1]): conferred protection from the toxic effects of paclitaxel; Protection Ratio (HFL-1 cells [2]): 1.3; protection from the toxic effects of vincristine (HFL-1 cells [3]): conferred protection from the toxic effects of vincristine; also recorded: Vincristine toxicity is abrogated; paclitaxel toxicity in mice (mortality) (ICR female mice): abrogated; replication rate (cell count) (HFL-1 cells [4]): transiently reduced replication rates
2 | O=S(=O)(/C=C/c1ccc(F)cc1)Cc1ccc(Cl)cc1Cl [Example 11, (E)-4-fluorostyryl-2,4-dichlorobenzyl sulfone] | + | –
3 | O=C(O)c1ccc(/C=C/S(=O)(=O)Cc2ccc(Cl)cc2)cc1 [Example 10, (E)-4-carboxystyryl-4-chlorobenzyl sulfone] | + | –
4 | O=S(=O)(/C=C/c1ccc(Cl)cc1)Cc1ccc(Cl)cc1 [Example 8, (E)-4-chlorostyryl-4-chlorobenzyl sulfone] | + | –
5 | O=S(=O)(/C=C/c1ccc(F)cc1Cl)Cc1ccc(Cl)cc1 [Example 9, (E)-2-chloro-4-fluorostyryl-4-chlorobenzyl sulfone] | + | –

Reference: US6656973B2, “(E)-4-carboxystyrl-4-chlorobenzyl sulfone and pharmaceutical compositions thereof” (Temple University - Of the Commonwealth System of Higher …, priority 1999, dated 2003)
